# From US20210330611A1, “THERAPY FOR NEUROLOGICAL DISEASES/DISORDERS” (priority 2020, published 2021)
# Like-named read-outs stand apart in the source and are kept apart here.
# What was measured:
# [1] = tested on: fibrin- and LPS-induced microglia activation; experiment: cells; format: cell-based, rat
# primary rat microglia [2] = experiment: Cell toxicity (dead cells, size <150 μm2) in coated fibrin (cFib) assay; conditions: for IC50: read-out: Cell Toxicity IC50 (uM) [cFib assay];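 for Fibrin % cell toxicity: share of dead cells sized under 150 µm2 at 10 µM in fibrin-stimulated microglia HTS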
# [3] = tested on: LPS-induced microglia activation; experiment: Image-based assay of LPS-induced microglia activation (HTS and dose response); format: cell-based, rat; conditions: for inhibition at 10 µM: read-out: LPS % inhibition
# primary rat microglia [4] = experiment: Cell toxicity (dead cells, size <150 μm2) in LPS assay; conditions: for IC50: read-out: Cell Toxicity IC50 (uM) [LPS assay]
# [5] = tested on: fibrin-induced microglia activation; experiment: Image-based assay of fibrin-induced microglia activation (HTS and dose response); format: cell-based, rat; conditions: for inhibition at 10 µM: read-out: Fibrin % inhibition
# [6] = quadrant by fibrin and LPS inhibition in HTS of 1907 compounds
# [7] = primary microglia HTS, fibrin stimulation, decreased size (<150 μm^2) as marker of toxicity
# [8] = Rattus norvegicus, Microglia, 48 h, primary microglia HTS, LPS stimulation, increased cell size (>800 μm^2) as marker of activation
# [9] = primary microglia HTS, LPS stimulation, decreased size (<150 μm^2) as marker of toxicity
# [10] = Rattus norvegicus, Microglia, primary microglia HTS, fibrin stimulation, increased cell size (>800 μm^2) as marker of activation
# [11] = HTS of 1907 compounds, quadrant by fibrin and LPS inhibition
# [12] = primary microglia HTS, 10 μM, fibrin assay, cell size <150 μm^2 as marker of toxicity
# [13] = Rattus norvegicus, Microglia, primary microglia HTS, 10 μM, LPS-stimulated, cell size >800 μm^2 as marker of activation
# [14] = primary microglia HTS, 10 μM, LPS assay, cell size <150 μm^2 as marker of toxicity
# [15] = Rattus norvegicus, Microglia, primary microglia HTS, 10 μM, fibrin-stimulated, cell size >800 μm^2 as marker of activation
# [16] = primary microglia HTS, fibrin stimulation, toxicity = cell size <150 μm2
# [17] = Rattus norvegicus, Microglia, 48 h, primary microglia HTS, LPS stimulation, activation = cell size >800 μm2
# [18] = primary microglia HTS, LPS stimulation, toxicity = cell size <150 μm2
# [19] = Rattus norvegicus, Microglia, primary microglia HTS, fibrin stimulation, activation = cell size >800 μm2
# [20] = primary microglia HTS, LPS stimulation, increased cell size (>800 μm^2) as marker of activation
# [21] = primary microglia HTS, fibrin stimulation, increased cell size (>800 μm^2) as marker of activation
compound,measurement,setting,value
"O=C(OC[C@H]1O[C@@H](OC(=O)c2cc(O)c(O)c(OC(=O)c3cc(O)c(O)c(O)c3)c2)[C@H](OC(=O)c2cc(O)c(O)c(OC(=O)c3cc(O)c(O)c(O)c3)c2)[C@@H](OC(=O)c2cc(O)c(O)c(OC(=O)c3cc(O)c(O)c(O)c3)c2)[C@@H]1OC(=O)c1cc(O)c(O)c(OC(=O)c2cc(O)c(O)c(O)c2)c1)c1cc(O)c(O)c(OC(=O)c2cc(O)c(O)c(O)c2)c1 [Tannic acid, reference compound]",Quadrant (FIG. 5b),"[1]; Table 2, screen at 10 μM",Q4
same,Activity,"[1]; Table 7, fib = fibrin, LPS, tox = toxicity",fib/LPS
same,Quadrant (FIG. 5b),[1]; [6],Q4
same,Fibrin % cell toxicity,primary rat microglia [2]; [7],0%
same,inhibition at 10 µM,[3]; [8],32%
same,IC50,"[3]; Rattus norvegicus, Microglia, Table 7, read-out: LPS_IC50",4.38 µM
same,LPS % cell toxicity,primary rat microglia [4]; [9],1%
same,IC50,"[5]; Rattus norvegicus, Microglia, Table 7, read-out: fib_IC50",4.96 µM
same,inhibition at 10 µM,[5]; [10],-60%
CC(C)(C)C(=O)C(Oc1ccc(Cl)cc1)n1ccnc1 (stereo not drawn) [Climbazole],Quadrant (FIG. 5b),"[1]; primary HTS, 10 μM",Q4
same,Fibrin % cell toxicity,"primary rat microglia [2]; primary HTS, 10 μM, fibrin assay, dead cells size <150 μm2",1%
same,inhibition at 10 µM,"[3]; Rattus norvegicus, Microglia, primary HTS, 10 μM, LPS-stimulated primary microglia",1%
same,LPS % cell toxicity,"primary rat microglia [4]; primary HTS, 10 μM, LPS assay, dead cells size <150 μm2",0%
same,inhibition at 10 µM,"[5]; Rattus norvegicus, Microglia, primary HTS, 10 μM, fibrin-stimulated primary microglia",-10%
Cc1cc(C(C)(C)C)cc(C)c1CC1=NCCN1 [Xylometazoline],Quadrant (FIG. 5b),[1]; [11],Q4
same,Fibrin % cell toxicity,primary rat microglia [2]; [12],0%
same,inhibition at 10 µM,[3]; [13],19%
same,LPS % cell toxicity,primary rat microglia [4]; [14],1%
same,inhibition at 10 µM,[5]; [15],-5%
CCn1cc(C(=O)O)c(=O)c2ccc(C)nc21 [Nalidixic Acid],Quadrant (FIG. 5b),[1]; [6],Q4
same,Fibrin % cell toxicity,primary rat microglia [2]; [7],1%
same,inhibition at 10 µM,[3]; [8],13%
same,LPS % cell toxicity,primary rat microglia [4]; [9],1%
same,inhibition at 10 µM,[5]; [10],-1%
CCN(C(C)=O)c1cccc(-c2ccnc3c(C#N)cnn23)c1 [Zaleplon],Quadrant (FIG. 5b),[1]; [11],Q4
same,Fibrin % cell toxicity,primary rat microglia [2]; [12],1%
same,inhibition at 10 µM,[3]; [13],13%
same,LPS % cell toxicity,primary rat microglia [4]; [14],0%
same,inhibition at 10 µM,[5]; [15],16%
CN1CCCN=C1COC(=O)C(O)(c1ccccc1)C1CCCCC1 (stereo not drawn) [Oxyphencyclimine],Quadrant (FIG. 5b),[1]; [6],Q4
same,Fibrin % cell toxicity,primary rat microglia [2]; [7],1%
same,inhibition at 10 µM,[3]; [8],11%
same,LPS % cell toxicity,primary rat microglia [4]; [9],0%
same,inhibition at 10 µM,[5]; [10],15%
CCCCCN(CCCCC)C(=O)C(CCC(=O)O)NC(=O)c1ccc(Cl)c(Cl)c1 (stereo not drawn) [Lorglumide Sodium],Quadrant (FIG. 5b),[1]; [6],Q4
same,Fibrin % cell toxicity,primary rat microglia [2]; [16],1%
same,inhibition at 10 µM,[3]; [17],13%
same,LPS % cell toxicity,primary rat microglia [4]; [18],1%
same,inhibition at 10 µM,[5]; [19],-29%
C[N+](C)(C)CCOC(=O)CCC(=O)OCC[N+](C)(C)C [Succinylcholine],Quadrant (FIG. 5b),[1]; [11],Q4
same,Fibrin % cell toxicity,primary rat microglia [2]; [12],1%
same,inhibition at 10 µM,[3]; [13],-5%
same,LPS % cell toxicity,primary rat microglia [4]; [14],0%
same,inhibition at 10 µM,[5]; [15],-54%
"CC(=O)[C@@]12O[C@](C)(c3ccccc3)O[C@@H]1C[C@H]1[C@@H]3CCC4=CC(=O)CC[C@]4(C)[C@H]3CC[C@@]12C [Algestone acetophenide, reference compound]",Hit,[1]; HTS hit classification,HIT (Hits were defined as molecules that exhibited greater than 50% inhibition of either fibrin or LPS activation)
same,Quadrant (FIG. 5b),[1]; [11],Q2
same,Quadrant (FIG. 5b),"[1]; Table 1, screen at 10 μM",Q2
same,Cherry-picked Hit (Suppl. Table 7),[1]; Table 3,HIT (Hits were defined as molecules that exhibited greater than 50% inhibition of either fibrin or LPS activation)
same,Quadrant (FIG. 5b),"[1]; Table 3, screen at 10 μM",Q2
same,Cherry-picked Hit (Suppl. Table 7),[1]; hit classification in microglia HTS,HIT (Hits were defined as molecules that exhibited greater than 50% inhibition of either fibrin or LPS activation)
same,Quadrant (FIG. 5b),[1]; [6],Q2
same,Fibrin % cell toxicity,primary rat microglia [2]; [7],1%
same,IC50,primary rat microglia [2]; Table 3,> 20 µM
same,IC50,primary rat microglia [2]; cFib assay,> 20 µM
same,IC50,"[3]; LPS-induced microglia activation, dose response, read-out: LPS IC50 (uM) (Suppl. Table 7)",9 µM
same,IC50,"[3]; Table 1, dose response 0.001-20 μM, triplicates, primary rat microglia, 48 h, read-out: LPS IC50",9 µM
same,IC50,"[3]; Table 3, read-out: LPS IC50 (uM) (Suppl. Table 7)",9 µM
same,IC50,"[3]; dose response, LPS-induced microglia activation, read-out: LPS IC50",9 µM
same,LPS % inhibition,[3]; [20],61%
same,LPS % cell toxicity,primary rat microglia [4]; [9],2%
same,IC50,primary rat microglia [4]; LPS assay,> 20 µM
same,IC50,primary rat microglia [4]; Table 3,> 20 µM
same,Fibrin Selectivity,[5],9
same,Fibrin Selectivity (LOG10),[5],0.95
same,IC50,"[5]; Table 1, dose response 0.001-20 μM, triplicates, primary rat microglia, 48 h, read-out: Fibrin IC50",1 µM
same,IC50,"[5]; Table 3, read-out: Fibrin IC50 (uM) (Suppl. Table 7)",1 µM
same,IC50,"[5]; dose response, fibrin-induced microglia activation, read-out: Fibrin IC50",1 µM
same,IC50,"[5]; fibrin-induced microglia activation, dose response, read-out: Fibrin IC50 (uM) (Suppl. Table 7)",1 µM
same,Fibrin % inhibition,[5]; [21],62%
CCCCC(CC)CN1CN(CC(CC)CCCC)CC(C)(N)C1 (stereo not drawn) [Hexetidine],Quadrant (FIG. 5b),[1]; [6],Q4
same,Fibrin % cell toxicity,primary rat microglia [2]; [16],1%
same,inhibition at 10 µM,[3]; [17],19%
same,LPS % cell toxicity,primary rat microglia [4]; [18],0%
same,inhibition at 10 µM,[5]; [19],-85%
NCc1ccc(S(N)(=O)=O)cc1 [Mafenide],Quadrant (FIG. 5b),[1]; [6],Q4
same,Fibrin % cell toxicity,primary rat microglia [2]; [7],1%
same,inhibition at 10 µM,[3]; [8],-3%
same,LPS % cell toxicity,primary rat microglia [4]; [9],0%
same,inhibition at 10 µM,[5]; [10],10%
"CC[C@H](C)C(=O)O[C@H]1CCC=C2C=C[C@H](C)[C@H](CC[C@@H]3C[C@@H](O)CC(=O)O3)[C@H]21 [Compactin, Mevastatin]",Quadrant (FIG. 5b),[1]; [6],Q2
same,Fibrin % cell toxicity,primary rat microglia [2]; [7],3%
same,LPS % inhibition,[3]; [20],89%
same,LPS % cell toxicity,primary rat microglia [4]; [9],2%
same,Fibrin % inhibition,[5]; [21],105%
